Reference: patent US5441968A, “Therapeutically active fluoro substituted benzimidazoles” (priority 1993, dated 1995)

Experiments:
[1] = Chemical stability in aqueous buffer solution at different pH values; type: physicochemical; conditions: for Chemical stability at pH2 t 10%: pH 2, 37° C., time after which 10% has decomposed
Procedure: The chemical stability of the compounds of the invention has been followed kinetically at low concentration at 37° C. in aqueous buffer solution at different pH values. The results in Table 3 show the half life (t 1/2) at pH 7, that is the time period after which half the amount of the original compound remains unchanged, and t10% at pH 2, that is the time period after which 10% of the original compound has decomposed.

gastric acid secretion = test: Inhibition of gastric acid secretion in the conscious dog; type: in vivo, dog (Harrier); conditions: for Inhibition of acid secretion: id
Procedure: The potency for inhibition of acid secretion is measured in the male rat and the dog, both intravenously and intraduodenally. When it comes to relevance of the animal test data for potency of a given compound in man for the present type of compounds, it is believed that potency in man will correspond to a level somewhere between what is measured in the male rat and what is measured in the dog.
Inhibition of Gastric Acid Secretion and Bioavailability in the Conscious Dog
Harrier dogs of either sex were used. They were equipped with a duodenal fistula for the administration of test compounds or vehicle and a cannulated ventricular fistula for the collection of gastric secretions.
Before secretory tests the animals were fasted for about 18 h but water was freely allowed. Gastric acid secretion was stimulated by a 4 h infusion of histamine dihydrochloride (12 ml/h) at a dose producing about 80% of the individual maximal secretory response, and gastric juice collected in consecutive 30-min fractions. Test substance or vehicle was given id or iv 1 h after starting the histamine infusion, in a volume of 0.5 ml/kg body weight. The acidity of the gastric juice samples were determined by titration to pH 7.0, and the acid output calculated. The acid output in the collection periods after administration of test substance or vehicle were expressed as fractional responses, setting the acid output in the fraction preceding administration to 1.0. Percentage inhibition was calculated from fractional responses elicited by test compound and vehicle. ED50 values were obtained by graphical interpolation on log dose-response curves, or estimated from single-dose experiments under the assumption of the same slope of the dose-response curve for all test compounds. All results reported are based on acid output 2 h after dosing.

Chemical stability at pH2 t 10% [1] [h]	half-life ([1]; pH 7, 37° C., read-out: Chemical stability at pH 7 t1/2 (converted)) [h]	Compound	ED50 (gastric acid secretion; Canis lupus familiaris, dog, id administration, histamine-stimulated, acid output 2 h after dosing) [µmol/kg]	Inhibition of acid secretion (gastric acid secretion; Dog 1, 1.5 μmol/kg) [%]	Inhibition of acid secretion (gastric acid secretion; Dog 2, 1.5 μmol/kg)
2	–	COc1ccnc(C[S+]([O-])c2nc3c(F)cccc3n2COC(=O)OCc2ccccc2)c1 (stereo not drawn) [Example 1, 4-fluoro-2-[[(4-methoxy-2-pyridinyl)methyl]sulfinyl]-1H-benzimidazole-1-ylmethyl benzyl carbonate]	–	–	–
3	16	CCOC(=O)OCn1c([S+]([O-])Cc2cc(OC)ccn2)nc2c(F)cccc21 (stereo not drawn) [Example 2, 4-fluoro-2-[[(4-methoxy-2-pyridinyl)methyl]sulfinyl] -1H-benzimidazole-1-ylmethyl ethyl carbonate]	1.3	55	no effect
